Entries after “also recorded” stand apart in the source; their conditions may differ.
Experiments:
[1] = Penetration test: penetration of radioactively marked active substance through isolated apple leaf cuticles in diffusion cells; settings: for % Penetration (after hours): acetone/tap water 20/80% by weight, 20-25° C., rel. humidity 56-60%, mean of 4-8 repetitions
Method: In this test, the penetration of active substances through enzymatically isolated cuticles of apple tree leaves was measured. The cuticles represent all green plant parts, such as leaf blade, petiole, stalk, trunk, hypocotyl and many fruits.
Leaves which were cut off in the stage of full development of apple trees of the Golden Delicious variety were used. The isolation of the cuticles was effected in a manner such that • first, leaf disks marked on the underside with dye and punched out were filled by means of vacuum infiltration with a pectinase solution (0.2 to 2% strength by weight) buffered to a pH between 3 and 4, • sodium azide was then added and • the leaf disks thus treated were allowed to stand until disintegration of the original leaf structure and detachment of the noncellular cuticle.
Thereafter, only those cuticles of the upper sides of the leaves which were free of stomata and hairs were further used. They were washed several times alternately with water and a buffer solution at pH 7. The cleaned cuticles obtained were finally drawn onto small Teflon plates and smoothed and dried with a gentle air jet.
In the next step, the cuticle membranes thus obtained were placed in stainless steel diffusion cells (=transport chambers) for membrane transport investigations. For this purpose, the cuticles were placed by means of forceps centrally on the silicone grease-coated edges of the diffusion cells and closed with a likewise greased ring. The arrangement was chosen so that the morphological outside of the cuticles faced outward, i.e. toward the air, while the original inside faced the interior of the diffusion cell. The diffusion cells were filled with water or with a mixture of water and solvent.
For determining the penetration, in each case 10 μl of a spray liquor of the composition mentioned in the examples were applied to the outside of a cuticle.
In each case the solvents listed below in the table (tap water or a mixture with 20% by weight of acetone/80% by weight of tap water) were used in the spray liquors.
After the application of the spray liquors, in each case the solvent was allowed to evaporate, and in each case the chambers were then turned around and placed in thermostated trays, air having a defined temperature and atmospheric humidity being blown onto the outside of the cuticle. The incipient penetration therefore took place at a relative humidity of 60% and a set temperature of 20 or 25° C. The active substance penetration was measured with radioactively marked active substance.

crop plant = assay: Crop plant tolerance tests of TBEP versus other alkyl ester additives; type: in vivo; settings: compared with other alkyl ester additives
[2] = after 3 hours, 0.2 g/l active substance without or with 0.5 g/l TBEP, apple leaf cuticles
[3] = after 24 hours, 0.2 g/l active substance without or with 0.5 g/l TBEP, apple leaf cuticles

Row | Structure (SMILES) | % Penetration (after hours) [1, 2] | % Penetration (after hours) [1, 3] [%] | further results
1 | O=C(Nc1ccccc1)Nc1cnns1 [thidiazuron] | – | – | % Penetration (after hours) ([1]; after 6 hours, 0.2 g/l thidiazuron without or with 3 g/l TBEP, apple leaf cuticles): 0.6 (6) %; % Penetration (after hours) ([1]; after 24 hours, 0.2 g/l thidiazuron without or with 3 g/l TBEP, apple leaf cuticles): 0.9%
2 | CCCCOCCOP(=O)(OCCOCCCC)OCCOCCCC [TBEP, tributoxyethyl phosphate] | – | – | Effect of the penetration enhancer on uptake of active substances (in words) ([1]; summary of tables 1 and 2, apple leaf cuticles): considerable increase in uptake of the active substances; also recorded: advantageously higher increase in uptake of active substances than the penetration enhancers of the prior art; Crop plant tolerance (in words) (crop plant): more tolerant than other alkyl ester additives
3 | CCOC(=O)C1=NOC(c2ccccc2)(c2ccccc2)C1 [isoxadifen-ethyl, ethyl 5,5-diphenyl-2-isoxazolinecarboxylate] | 1.7 (3) % | 17.4 | –
4 | COc1ccccc1C(=O)NS(=O)(=O)c1ccc(C(=O)NC2CC2)cc1 [cyprosulfamide, 4-cyclopropylaminocarbonyl-N-(2-methoxybenzoyl)benzenesulfonamide] | 0.1 (3) % | 0.3 | –
5 | CCOC(=O)C(C)Oc1ccc(Oc2nc3ccc(Cl)cc3o2)cc1 (stereo not drawn) [fenoxaprop-P-ethyl, ethyl 2-(4-(6-chlorobenzoxazol-2-yloxy)phenoxy)propionate] | – | – | % Penetration (after 24 hours) ([1]; apple tree, 24 h, 0.3 g/l): 0.3%; % Penetration (after 48 hours) ([1]; apple tree, 48 h, 0.3 g/l): 0.9%
6 | CCOC(=O)C1=NN(c2ccc(Cl)cc2Cl)C(C)(C(=O)OCC)C1 (stereo not drawn) [mefenpyr-diethyl, ethyl 1-(2,4-dichlorophenyl)-5-(ethoxycarbonyl)-5-methyl-2-pyrazoline-3-carboxylate] | 0.4 (3) % | 4.9 | –

Source: US20100048516A1, “PENETRATION ENHANCER FOR FUNGICIDES” (Bayer CropScience AG, priority 2006, published 2010)
